The record followed here is patent US20060160837A1, “Rapamycin compounds in the treatment of neurofibromatosis type 1” (The Brigham and Women's Hospital, Inc., priority 2004, published 2006).

Assay [1] deals with tuberin phosphorylation at T-1462 and S-939. Put plainly: Tuberin phosphorylation at T-1462 and S-939, immunoblot in serum-starved Nf1-deficient cells. It counts as cell-based, mouse. The note with it: 200 nM wortmannin or U0126. On the technique in general: In western blotting, separated proteins are transferred to a membrane and probed.
The test system of assay [2] is S6K1 phosphorylation in NF1-/- Schwann cells. The assay is described as follows: S6K1 phosphorylation immunoblot in neurofibroma-derived NF1-/- Schwann cells. It counts as cell-based. The note with it: NF1-/- Schwann cells from human cutaneous and plexiform neurofibromas. The protocol:
Litter-mate matched MEFs or NIH3T3 cells were plated in serum-free media at a density of 1.0×10^6 cells/10-cm plate. After 18 hours, 200 nM insulin or 6 μM LPA was added. Where indicated, cells were pre-treated with DMSO, 20 nM rapamycin (Calbiochem), 200 nM Wortmannin (Sigma-Aldrich), or indicated concentrations of U0126 (Calbiochem) for 30-min. For amino acid withdrawal studies, cells were washed and media was replaced with D-PBS for the indicated times. Following stimulation, cells were lysed in 1% SDS boiling lysis buffer. Neurofibroma-derived patient matched NF1^+/− and NF1^−/− Schwann cells were isolated and cultured as previously described (Rosenbaum, et al., J. Neurosci. Res. 61:524-532 (2000); Serra, et al., Hum. Mol. Genet. 9:3055-3064 (2000)). Schwann cells were seeded at a concentration of 2.5×10^5 cells/6-cm plate in DMEM containing 0.1% serum without forskolin, insulin or heregulin and lysed as described above. […] Clarified lysates were normalized for protein levels and analyzed by Western blotting with the following antibodies: Phospho-p70S6K(T-389), Phospho-Tuberin (S-939), Phospho-Tuberin (T-1462), Phospho-Akt(S-473), Phospho-p44/42 Erk (T-202/Y-204) (Cell Signaling Technologies), Tuberin (C-20) (Santa Cruz Biotechnology), Protein Kinase Bα/AKT1, Actin, β-Tubulin (Sigma-Aldrich) and avian p90RSK1. […]

For assay [3], the system named is tuberin phosphorylation at S-1798. Put plainly: Phosphorylation of immunoprecipitated tuberin at S-1798 in serum-starved Nf1-deficient MEFs. It is filed as cell-based, mouse.
Assay [4] relates to S6K1 phosphorylation at T-389 (readout of mTOR activation). The assay is described as follows: S6K1 (T-389) phosphorylation immunoblot in serum-starved Nf1-deficient MEFs. It counts as cell-based, mouse. The note with it: serum-deprived Nf1-null MEFs; pre-treatment 30 min; 20 nM rapamycin, 200 nM wortmannin, U0126.
Assay [5] concerns MPNST cell lines from NF1 patients. The assay is described as follows: MPNST proliferation studies (live cell count, trypan blue exclusion). It is filed as cell-based. To be noted: Homo sapiens, 168 h; two MPNST cell lines from two NF1 patients; 7 days; rapamycin 0.01-100 nM.

For the molecule `N#CC(=C(/N)Sc1ccccc1N)/C(C#N)=C(\N)Sc1ccccc1N` [U0126], the “tuberin phosphorylation at T-1462 and S-939” value in assay [1] is recorded as “no effect”. Besides, the S6K1 phosphorylation entry in assay [2] is given as “blocked”. In assay [3], the “tuberin phosphorylation at S-1798 (basophilic RXRXXpS/T site)” value was “suppressed”. For the same molecule, the “aberrant activation (phosphorylation) of S6K1” value in assay [4] is recorded as “suppressed S6K1 phosphorylation in these cells to a similar extent”.
One may read the IC50 as the point on the concentration scale where inhibition reaches its midpoint. A low value points to inhibition by little substance. As for `CO[C@H]1C[C@@H]2CC[C@@H](C)[C@@](O)(O2)C(=O)C(=O)N2CCCC[C@H]2C(=O)O[C@H]([C@H](C)C[C@@H]2CC[C@@H](O)[C@H](OC)C2)CC(=O)[C@H](C)/C=C(\C)[C@@H](O)[C@@H](OC)C(=O)[C@H](C)C[C@H](C)/C=C/C=C/C=C/1C` [rapamycin], in assay [5], the IC50 lay within 1 to 10 nM.
